Source: ChEMBL document CHEMBL1143025, “Synthesis of carbamate derivatives of iejimalides. Retention of normal antiproliferative activity and localization of binding in cancer cells” (2007)
Activity calls are given as the source filed them. No cut-off for these calls is given here.

Key:
MCF7 = assay: Antiproliferative activity against human MCF7 cells after 72 hrs by MTT assay; format: functional; settings: MCF7, 72 h
PC-3 [1] = assay: Antiproliferative activity against human PC3 cells after 72 hrs by MTT assay; format: functional; settings: PC-3, 72 h
[2] = Antiproliferative activity against human MDA231 cells after 72 hrs by MTT assay; format: functional; settings: MDA-MB-231, 72 h
SK-BR-3 = assay: Antiproliferative activity against human SKBr3 cells after 72 hrs by MTT assay; format: functional; settings: SK-BR-3, 72 h
PC-3 [3] = assay: Disruption of microtubules in human PC3 cells at 100 nM after 12 hrs; format: functional, cell-based

SMILES | GI50 (MCF7) [nM] | GI50 (PC-3 [1]) [nM] | GI50 [2] [nM] | GI50 (SK-BR-3) [nM] | Activity (PC-3 [3])
CO[C@@H]1/C=C(C)/C=C/[C@@H](C)/C=C(\C)C(=O)O[C@H](/C(C)=C/C=C(\C)CNC(=O)[C@H](COC(=O)Nc2ccccc2)NC=O)[C@@H](C)/C=C/C=C/[C@@H](OC)CC/C=C(C)\C=C\C1 | 8.3 | 9.9 | 8.8 | 10.5 | –
CO[C@@H]1/C=C(C)/C=C/[C@@H](C)/C=C/C(=O)O[C@H](/C(C)=C/C=C(\C)CNC(=O)[C@H](COC(=O)Nc2ccccc2)NC=O)[C@@H](C)/C=C/C=C/[C@@H](OC)CC/C=C(C)\C=C\C1 | 7.5 | 15.3 | 12 | 20 | –
CC(=O)O[C@H]1C(=O)[C@@]2(C)[C@H]([C@H](OC(=O)c3ccccc3)[C@]3(O)C[C@H](OC(=O)[C@H](O)[C@@H](NC(=O)c4ccccc4)c4ccccc4)C(C)=C1C3(C)C)[C@]1(OC(C)=O)CO[C@@H]1C[C@@H]2O | – | – | – | – | Active
